Broadly, the Ki is a measure of affinity in units of concentration, obtained from inhibition or displacement. Broadly, the melting point is the temperature of the solid-liquid transition.

Series [1] has as its target T1, recombinant rat mGluR2 expressed in CHO cells (Rattus norvegicus, UniProt P31421).
T1 construct: expressed in transfected cells; vector pcDNA I-amp, construct pcD1mGR2
In words: [3H]-LY354740 binding on mGlu2 transfected CHO cell membranes (displacement binding assay).
Source text: These values were obtained by indirect measurement of the affinity of the compounds for the recombinant rat mGluR2 expressed in CHO cells using a displacement binding assay with 3H-LY354740.
Transfection and Cell Culture
cDNA encoding the rat mGlu2 receptor protein in pBluescript II was obtained from Prof. S. Nakanishi (Kyoto, Japan), and subcloned into the eukaryotic expression vector pcDNA I-amp from Invitrogen (NV Leek, The Netherlands). This vector construct (pcD1mGR2) was co-transfected with a psvNeo plasmid encoding the gene for neomycin resistance, into CHO cells by a modified calcium phosphate method described by Chen & Okayama (1988). The cells were maintained in Dulbecco's Modified Eagle medium with reduced L-glutamine (2 mM final concentration) and 10% dialysed foetal calf serum from Gibco BRL (Basel, Switzerland). Selection was made in the presence of G-418 (1000 ug/ml final). Clones were identified by reverse transcription of 5 μg total RNA, followed by PCR using mGlu2 receptor specific primers 5′-[sequence]-3′ and 5′-[sequence]-3′ in 60 mM Tris HCl (pH 10), 15 mM (NH4)2SO4, 2 mM MgCl2, 25 units/ml Taq Polymerase with 30 cycles annealing at 60° C. for 1 min., extention at 72° C. for 30 s, and 1 min. 95° C. denaturation.
Cells, cultured as above, were harvested and washed three times with cold PBS and frozen at −80° C. The pellet was resuspended in cold 20 mM HEPES-NaOH buffer containing 10 mM EDTA (pH 7.4), and homogenised with a polytron (Kinematica, AG, Littau, Switzerland) for 10 s at 10 000 rpm. After centrifugation for 30 min. at 4° C., the pellet was washed once with the same buffer, and once with cold 20 mM HEPES-NaOH buffer containing 0.1 mM EDTA, (pH 7.4). Protein content was measured using the Pierce method (Socochim, Lausanne, Switzerland) using bovine serum albumin as standard.
After thawing, the membranes were resuspended in cold 50 mM Tris-HCl buffer containing 2 mM MgCl2 and 2 mM CaCl2, (pH 7) (binding buffer). The final concentration of the membranes in the assays was 25 µg protein/ml. Inhibition experiments were performed with membranes incubated with 10 nM [^3H]-LY354740 at room temperature, for 1 hour, in presence of various concentrations of the compound to be tested. Following the incubations, membranes were filtered onto Whatmann GF/C glass fiber filters and washed 5 times with cold binding buffer. Non specific binding was measured in the presence of 10 μM DCG IV. After transfer of the filters into plastic vials containing 10 ml of Ultima-gold scintillation fluid (Packard, Zürich, Switzerland), the radioactivity was measured by liquid scintillation in a Tri-Carb 2500 TR counter (Packard, Zürich, Switzerland).
The inhibition curves were fitted with a four parameter logistic equation giving IC50 values, and Hill coefficients and the Ki values were calculated using the Cheng and Prusoff equation (Cheng, Y. and Prusoff, W. H., Biochem. Pharmacol. 1973, 22, 3099-3108). A small Ki value expresses high affinity of the compound towards the receptor.

T1 sequence (P31421 19-872): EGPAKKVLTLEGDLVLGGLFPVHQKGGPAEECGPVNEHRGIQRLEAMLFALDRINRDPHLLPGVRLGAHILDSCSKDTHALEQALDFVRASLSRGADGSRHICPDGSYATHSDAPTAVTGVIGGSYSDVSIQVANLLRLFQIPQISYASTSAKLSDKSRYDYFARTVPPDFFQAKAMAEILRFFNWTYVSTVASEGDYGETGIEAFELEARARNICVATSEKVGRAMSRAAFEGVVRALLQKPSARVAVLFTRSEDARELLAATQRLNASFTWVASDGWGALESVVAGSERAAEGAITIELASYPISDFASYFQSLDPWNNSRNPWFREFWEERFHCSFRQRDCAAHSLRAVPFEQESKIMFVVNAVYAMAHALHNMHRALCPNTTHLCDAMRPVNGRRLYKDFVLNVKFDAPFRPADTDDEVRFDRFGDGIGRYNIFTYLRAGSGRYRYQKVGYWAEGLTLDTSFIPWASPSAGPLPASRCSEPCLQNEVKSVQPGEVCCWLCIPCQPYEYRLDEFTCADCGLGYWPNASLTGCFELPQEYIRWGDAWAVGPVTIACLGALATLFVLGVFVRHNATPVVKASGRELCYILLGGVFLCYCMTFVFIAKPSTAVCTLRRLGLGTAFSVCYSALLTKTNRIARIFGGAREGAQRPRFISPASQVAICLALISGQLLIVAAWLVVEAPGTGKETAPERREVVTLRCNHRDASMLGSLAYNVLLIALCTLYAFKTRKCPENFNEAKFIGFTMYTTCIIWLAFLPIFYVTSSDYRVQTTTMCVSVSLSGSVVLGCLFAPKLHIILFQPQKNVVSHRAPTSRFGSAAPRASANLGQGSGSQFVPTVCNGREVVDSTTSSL

In turn, `CN(C)c1cc2c(cc1C(F)(F)F)NC(=O)CC(c1cccc(-c3nnc(CO)s3)c1)=N2` [Example 204, 7-Dimethylamino-4-[3-(5-hydroxymethyl-[1,3,4]thiadiazol-2-yl)-phenyl]-8-trifluoromethyl-1,3-dihydro-benzo[b][1,4]diazepin-2-one] came in with a melting point of 242 to 246 °C. In series [1], the Ki came out at 17 nM.
`CCCc1oc(C)nc1-c1cccc(C2=Nc3cc(N(C)C)c(C(F)(F)F)cc3NC(=O)C2)c1` [Example 212, 7-Dimethylamino-4-[3-(2-methyl-5-propyl-oxazol-4-yl)-phenyl]-8-trifluoromethyl-1,3-dihydro-benzo[b][1,4]diazepin-2-one] registered a melting point of 211 to 212 °C. Moreover, the Ki in series [1] came to 46 nM.
As to `CCCN(C)c1cc2c(cc1C(F)(F)F)NC(=O)CC(c1cccc(-c3nnc(CO)s3)c1)=N2` [Example 222, 4-[3-(5-Hydroxymethyl-[1,3,4]thiadiazol-2-yl)-phenyl]-7-(methyl-propyl-amino)-8-trifluoromethyl-1,3-dihydro-benzo[b][1,4]diazepin-2-one], the melting point was in the range of 193 to 194 °C. In addition, the Ki in series [1] was 8 nM.

Values taken from patent US6544985B2, “Dihydro-benzo [b][1,4]diazepin-2-one derivatives” (Hoffman-La Roche Inc., priority 2001, dated 2003).
